As usually defined, the EC50 is the concentration giving half of the maximal effect. By IC50 is commonly meant the concentration that gives 50% inhibition.

Twelve compounds from ChEMBL document CHEMBL4396891, “Recent update on anti-dengue drug discovery” (Eur J Med Chem, 2019) can be followed below.

The structures appear in SMILES notation.

For experiment [1], the system named is A549. The experiment can be described thus: Cytotoxicity against human A549 cells assessed as cell survival at 200 uM after 24 hrs by MTT assay relative to control. The class given is functional. Particulars: A549, 24 h, read-out: Activity.
In experiment [2] the test system is dengue virus type 2. The experiment can be described thus: Antiviral activity against DENV2 New Guinea C/PUO-218 by qRT-PCR analysis. The class given is functional, organism-based. (Real-time PCR tracks product formation cycle by cycle.)
Experiment [3] relates to dengue virus type 2. The experiment can be described thus: Antiviral activity against DENV2 infected in human Huh7 cells assessed as reduction in virus yield by qRT-PCR analysis. The class given is functional, organism-based. Particulars: Huh-7.
Experiment [4] has as its system dengue virus type 2. Briefly: Antiviral activity against DENV2 infected in BHK-21 incubated for 2 hrs followed by compound washout and subsequent replating by plaque-forming assay. The class given is functional, organism-based. Particulars: BHK-21, 2 h.
Experiment [5] relates to dengue virus type 2. The experiment can be described thus: Antiviral activity against DENV2 infected in African green monkey Vero cells assessed as reduction in virus titer after 72 hrs by naphthol blue-black dye based assay. The class given is functional, organism-based.
Experiment [6] addresses T1, Genome polyprotein (dengue virus type 2, UniProt P29990). Briefly: Inhibition of DENV2 NS2B-NS3 serine protease using Boc-GRR-AMC as substrate after 30 mins.
Experiment [7] deals with dengue virus type 2. The experiment can be described thus: Antiviral activity against DENV2 infected in human Huh-7 cells assessed as reduction in viral infection. The class given is functional, organism-based.
The target in experiment [8] is T1, Genome polyprotein. The experiment can be described thus: Inhibition of His-tagged DENV2 NS2B-NS3 serine protease expressed in baculovirus infected sf9 cells.
Experiment [9] deals with T1, Genome polyprotein. The experiment can be described thus: Inhibition of His-tagged DENV2 NS2B-NS3 serine protease.
Experiment [10] relates to dengue virus type 2. Briefly: Antiviral activity against DENV2 16681 infected in human Huh7 cells after 3 days by RT-qPCR analysis. It counts as functional, organism-based. To be noted: Dengue virus, 16681, Huh-7, 72 h.
For experiment [11], the target named is T1, Genome polyprotein. The experiment can be described thus: Inhibition of DENV2 NS2B-NS3 serine protease expressed in human Huh7 cells after 3 days by Phospha-Light SEAP reporter gene Assay. The class given is cell-based.
The subject of experiment [12] is dengue virus type 2. Briefly: Antiviral activity against DENV2 infected in human Huh7 cells up to 72 hrs by immunofluorescence analysis. The class given is functional, organism-based. To be noted: Huh-7, 72 h.
Experiment [13] deals with Dengue virus. The experiment can be described thus: Antiviral activity against Dengue virus infected in human HepG2 cells assessed as viral production at 150 uM after 1 hrs by flow cytometry analysis relative to control. The class given is functional.
Experiment [14] deals with dengue virus type 2. Briefly: Antiviral activity against DENV2 infected in human Huh-7 cells. The class given is functional, organism-based.
For experiment [15], the system named is dengue virus type 2. Briefly: Antiviral activity against DENV2 16681 infected in human Huh7 cells by luciferase reporter gene assay. The class given is functional, organism-based. To be noted: Dengue virus, 16681, Huh-7. (In general: Reporter assays use an easily measured gene product as a stand-in for the process of interest.)
Experiment [16] deals with dengue virus type 1. Briefly: Antiviral activity against DENV1 infected in human Huh7 cells assessed as reduction in viral yield after 48 hrs by MTT assay. It counts as functional, organism-based. Particulars: Huh-7, 48 h, pooled result: one value given for 4 cell lines, strains, targets or settings. In general terms: Formazan colour is commonly taken as a measure of viable cells.

Experiment [17] concerns dengue virus type 2. Briefly: Antiviral activity against DENV2 […] infected in African green monkey Vero cells by qRT-PCR analysis. The class given is functional, organism-based.
Experiment [18] deals with dengue virus type 2. The experiment can be described thus: Antiviral activity against DENV2 infected in BHK-21 assessed as reduction in viral plaque formation by crystal violet staining based assay. The class given is functional, organism-based.
The subject of experiment [19] is dengue virus type 3. Briefly: Antiviral activity against DENV3 infected in BHK cells assessed as reduction in viral replication. It counts as functional, organism-based.
Experiment [20] deals with dengue virus type 1. The experiment can be described thus: Antiviral activity against DENV1 infected in BHK cells assessed as reduction in viral replication. It counts as functional, organism-based.
Experiment [21] deals with dengue virus type 4. Briefly: Antiviral activity against DENV4 infected in BHK cells assessed as reduction in viral replication. The class given is functional, organism-based.
The target of experiment [22] is Nonstructural protein 5 (Dengue virus, UniProt V5TFZ2). Briefly: Inhibition of recombinant N-terminal His6-tagged DENV2 NGC NS5 RNA dependent RNA polymerase. Also noted: species or system dengue virus type 2.
Sequence of Nonstructural protein 5 (V5TFZ2 whole entry): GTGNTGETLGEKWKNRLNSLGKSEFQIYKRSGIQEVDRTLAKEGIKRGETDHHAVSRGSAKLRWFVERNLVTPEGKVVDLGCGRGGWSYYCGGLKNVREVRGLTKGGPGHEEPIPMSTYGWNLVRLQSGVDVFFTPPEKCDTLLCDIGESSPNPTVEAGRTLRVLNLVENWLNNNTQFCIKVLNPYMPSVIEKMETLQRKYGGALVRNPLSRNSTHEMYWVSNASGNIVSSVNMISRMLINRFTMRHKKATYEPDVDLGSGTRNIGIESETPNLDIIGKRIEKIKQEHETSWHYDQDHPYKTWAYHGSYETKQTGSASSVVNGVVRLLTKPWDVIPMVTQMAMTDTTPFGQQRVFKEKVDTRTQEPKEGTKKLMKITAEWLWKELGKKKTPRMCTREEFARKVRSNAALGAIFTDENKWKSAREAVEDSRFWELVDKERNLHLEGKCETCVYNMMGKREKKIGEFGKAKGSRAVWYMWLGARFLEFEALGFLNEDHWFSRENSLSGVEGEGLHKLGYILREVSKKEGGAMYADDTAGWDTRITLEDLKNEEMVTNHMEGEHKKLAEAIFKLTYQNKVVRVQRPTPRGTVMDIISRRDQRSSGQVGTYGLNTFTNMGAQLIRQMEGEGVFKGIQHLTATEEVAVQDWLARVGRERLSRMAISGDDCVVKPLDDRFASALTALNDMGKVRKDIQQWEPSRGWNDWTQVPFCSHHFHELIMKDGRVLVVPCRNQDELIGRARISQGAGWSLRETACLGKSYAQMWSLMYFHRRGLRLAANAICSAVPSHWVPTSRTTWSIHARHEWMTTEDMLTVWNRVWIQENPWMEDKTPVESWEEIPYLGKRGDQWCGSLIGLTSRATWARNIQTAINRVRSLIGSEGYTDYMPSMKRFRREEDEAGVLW
For experiment [23], the system named is dengue virus type 2. The experiment can be described thus: Antiviral activity against DENV2 infected in BHK cells assessed as reduction in viral replication. It counts as functional, organism-based.

For `CC1(C)[C@@H](OC(=O)CCC(=O)O)CC[C@]2(C)[C@H]3C(=O)C=C4[C@@H]5C[C@@](C)(C(=O)O)CC[C@]5(C)CC[C@@]4(C)[C@]3(C)CC[C@@H]12` [CARBENOXOLONE], in [1], the viability at 200 µM stood at 80%. Take `CC(C)OC(=O)[C@H](C)N[P@](=O)(OC[C@H]1O[C@@H](n2ccc(=O)[nH]c2=O)[C@](C)(F)[C@@H]1O)Oc1ccccc1` [SOFOSBUVIR]: the figures for the EC50 in [2] and in experiment [3] were 0.4 µM and 4.9 µM, respectively. `CCN(CCO)CCCC(C)Nc1ccnc2cc(Cl)ccc12` (stereo not drawn) [HYDROXYCHLOROQUINE]: the half-maximal inhibitory concentration (IC50) in experiment [4] worked out at 10.1 µM.

Take `C[C@H]1c2cccc(O)c2C(=O)C2=C(O)[C@]3(O)C(=O)C(C(N)=O)=C(O)[C@@H](N(C)C)[C@@H]3[C@@H](O)[C@@H]21` [DOXYCYCLINE]: the IC50 in [5] was determined as 50 µM. On to `COC(=O)c1[nH]c2ccc(Cl)cc2c1C(=O)c1cc(OC)c(O)c(OC)c1`, for which the IC50 turned out to be 4.7 µM in [6], 6.7 µM in [8], 4.7 µM in experiment [9] and 6.7 µM in experiment [11]. Further, the EC50 in experiment [7] and in experiment [10] was 4.6 µM throughout. Compound `CC(=O)O[C@H]1C[C@H](O[C@H]2[C@@H](O)C[C@H](O[C@H]3[C@@H](O)C[C@H](O[C@H]4CC[C@@]5(C)[C@H](CC[C@@H]6[C@@H]5C[C@@H](O)[C@]5(C)[C@@H](C7=CC(=O)OC7)CC[C@]65O)C4)O[C@@H]3C)O[C@@H]2C)O[C@H](C)[C@H]1O[C@@H]1O[C@H](CO)[C@@H](O)[C@H](O)[C@H]1O` [LANATOSIDE C] displayed an IC50 in experiment [12] of 0.19 µM. For `C=C[C@H]1CN2CC[C@H]1C[C@H]2[C@H](O)c1ccnc2ccc(OC)cc12` [QUININE], in experiment [13], the Activity was 19%. Consider `C/C(=C\[C@H](C)C(=O)C[C@H](O)CC1CC(=O)NC(=O)C1)[C@@H]1OC(=O)/C=C/CC/C=C/C=C\[C@@H]1C` [LACTIMIDOMYCIN], for which the EC50 in experiment [14] and in experiment [15] was 0.4 µM each time. For the compound `O=C1[C@H](CC[C@H](O)c2ccc(F)cc2)[C@@H](c2ccc(O)cc2)N1c1ccc(F)cc1` [EZETIMIBE], the IC50 in experiment [16] came out at 13.1 µM. Regarding `CC[C@@H]([C@H](C)O)n1ncn(-c2ccc(N3CCN(c4ccc(OC[C@@H]5CO[C@@](Cn6cncn6)(c6ccc(F)cc6F)C5)cc4)CC3)cc2)c1=O` [POSACONAZOLE], in [17], the EC50 was 4.1 µM. As to `O=C(Nc1ccc([N+](=O)[O-])cc1Cl)c1cc(Cl)ccc1O` [NICLOSAMIDE], the IC50 in experiment [18] worked out at 10 µM. For the compound `O=C(NO)c1ncc(CS(=O)(=O)c2ccccc2)c(CO)c1O`, the EC50 in experiment [19], in experiment [20] and in experiment [23] was 2.2 to 2.8 µM each time. Also, the 50% inhibitory concentration (IC50) was 2.2 to 2.8 µM in [21] and 5 to 6.7 µM in experiment [22].
